Experimental data published in publication PMC4258349 (International Journal of Medicinal Chemistry, 2014).
Values after ≈ are worked out from the molar mass of the structure shown. Where two headings read alike, the source gives them in different places.

How the values were obtained:
[1] = Method: Saturated solution (10 mL) of each of the complexes and ligands at ambient temperature (28°C) was evaporated to dryness in an evaporating dish. The mass of the solid left in each case was determined. The solubilities were calculated using the relation: (1) S=mass/volume×1000. The solubilities of the complexes were compared with those of the ligands.
The solubilities were determined at 28°C.

[2] = Relative thermal stability (spectrophotometric absorbance); format: physicochemical; settings: 0.1 mg/mL solution, 24 hours, at λ-max
Method: (§1) The relative thermal and acid stabilities of the complexes were determined spectrometrically. Dilute solutions (0.1 mg/mL) were prepared, their absorption spectra were generated, and the λ-max in each case was noted. The solution of each complex was divided into seven equal portions and the temperature regulated to 20°C, 30°C, 40°C, 50°C, 60°C, 70°C, and 80°C, respectively, for a period of 24 hours. The absorbance in each case was then measured. Similarly, the same concentration of these solutions was prepared at the pH range of 1–6 and the absorbance was measured. These changes in absorbance with temperature and pH, assuming that Beer-Lambert's law is obeyed, are a measure of the stability of the complexes.

[3] = Relative acid stability (spectrophotometric absorbance); format: physicochemical; settings: 0.1 mg/mL solution, at λ-max
Method: as §1
The changes in absorbance with pH are a measure of the acid stability of the compounds.

[4] = system: Staphylococcus aureus; test: microbe, parasite or virus in culture; format: cell-based; settings: read-out: Inhibition zone diameter
[5] = system: Bacillus subtilis; test: microbe, parasite or virus in culture; format: cell-based; settings: read-out: Inhibition zone diameter
[6] = system: Pseudomonas aeruginosa; test: microbe, parasite or virus in culture; format: cell-based; settings: read-out: Inhibition zone diameter
[7] = system: Escherichia coli; test: microbe, parasite or virus in culture; format: cell-based; settings: read-out: Inhibition zone diameter
[8] = system: Salmonella typhi; test: Agar well diffusion, inhibition zone diameter; format: cell-based; settings: Salmonella enterica, 24 h, read-out: Inhibition zone diameter
[9] = system: Shigella spp.; test: microbe, parasite or virus in culture; format: cell-based; settings: 24 h, read-out: Inhibition zone diameter
[10] = system: Aspergillus niger; test: Agar well diffusion, inhibition zone diameter; format: cell-based; settings: 48 h, read-out: Inhibition zone diameter
[11] = system: Staphylococcus aureus; test: microbe, parasite or virus in culture; format: cell-based; settings: read-out: Minimum inhibitory concentration (MIC)
[12] = system: Bacillus subtilis; test: microbe, parasite or virus in culture; format: cell-based; settings: read-out: Minimum inhibitory concentration (MIC)
[13] = system: Pseudomonas aeruginosa; test: microbe, parasite or virus in culture; format: cell-based; settings: read-out: Minimum inhibitory concentration (MIC)
[14] = system: Escherichia coli; test: microbe, parasite or virus in culture; format: cell-based; settings: read-out: Minimum inhibitory concentration (MIC)
[15] = system: Salmonella typhi; test: Minimum inhibitory concentration (dilutions, plot of IZD^2 against log concentration); format: cell-based; settings: Salmonella enterica, read-out: Minimum inhibitory concentration (MIC)
[16] = system: Shigella spp.; test: microbe, parasite or virus in culture; format: cell-based; settings: read-out: Minimum inhibitory concentration (MIC)
[17] = system: Aspergillus niger; test: microbe, parasite or virus in culture; format: cell-based; settings: read-out: Minimum inhibitory concentration (MIC)
[18] = Relative acid stability (spectrophotometric absorbance); format: physicochemical; settings: 0.1 mg/mL solution, at λ-max; remark: listed apart in the source

Row | Structure (SMILES) | Absorbance at 20°C [2] | Absorbance at 30°C [2] | Absorbance at 40°C [2] | Absorbance at 50°C [2] | Absorbance at 60°C [2] | Absorbance at 70°C [2] | Absorbance at 80°C [2] | Absorbance at pH 1 [3] | Absorbance at pH 2 [3] | Absorbance at pH 3 [3] | Absorbance at pH 4 [3] | Absorbance at pH 5 [3] | Absorbance at pH 6 [3] | zone of inhibition at 5000 µg/mL [8] | zone of inhibition at 5000 µg/mL [9] | zone of inhibition at 5000 µg/mL [10] | MIC [15] | MIC [16] | Absorbance at pH 7 [18] | further results
1 | Cc1onc(-c2ccccc2Cl)c1C(=O)N[C@@H]1C(=O)N2[C@@H]1SC(C)(C)[C@@H]2C(=O)O [Cloxacillin] | 0.721 | 0.727 | 0.683 | 0.455 | 0.337 | 0.190 | 0.184 | 0.437 | 0.449 | 0.550 | 0.554 | 0.696 | 0.704 | 27 mm | 30 mm | 30 mm | 14.5 µg/mL (≈ 33.3 µM) | 12.5 µg/mL (≈ 28.7 µM) | 0.722 | Solubility [1]: Negligible; zone of inhibition at 5000 µg/mL ([4]; S. aureus clinical isolate, 5 mg/mL, 32°C 24 hours): 31.5 mm; zone of inhibition at 5000 µg/mL ([5]; B. subtilis clinical isolate, 5 mg/mL, 32°C 24 hours): 32 mm; zone of inhibition at 5000 µg/mL ([6]; P. aeruginosa clinical isolate, 5 mg/mL, 32°C 24 hours): 20 mm; zone of inhibition at 5000 µg/mL ([7]; E. coli clinical isolate, 5 mg/mL, 32°C 24 hours): 28 mm; MIC ([11]; S. aureus clinical isolate): 12.5 µg/mL (≈ 28.7 µM); MIC ([12]; B. subtilis clinical isolate): 12.5 µg/mL (≈ 28.7 µM); MIC ([13]; P. aeruginosa clinical isolate): 22 µg/mL (≈ 50.5 µM); MIC ([14]; E. coli clinical isolate): 14.5 µg/mL (≈ 33.3 µM); MIC ([17]; A. niger clinical isolate): 14.5 µg/mL (≈ 33.3 µM)
2 | CC1(C)S[C@@H]2[C@H](NC(=O)[C@H](N)c3ccc(O)cc3)C(=O)N2[C@H]1C(=O)O [Amoxicillin] | 0.661 | 0.664 | 0.643 | 0.428 | 0.369 | 0.312 | 0.126 | 0.387 | 0.404 | 0.499 | 0.511 | 0.603 | 0.620 | 35.5 mm | 30 mm | 35 mm | 11 µg/mL (≈ 30.1 µM) | 11 µg/mL (≈ 30.1 µM) | 0.664 | zone of inhibition at 5000 µg/mL ([4]; 24 h): 30 mm; zone of inhibition at 5000 µg/mL ([5]; 24 h): 30 mm; zone of inhibition at 5000 µg/mL ([6]; 24 h): 28 mm; zone of inhibition at 5000 µg/mL ([7]; 24 h): 33 mm; MIC [11]: 12.5 µg/mL (≈ 34.2 µM); MIC [12]: 12.5 µg/mL (≈ 34.2 µM); MIC [13]: 14 µg/mL (≈ 38.3 µM); MIC [14]: 12.5 µg/mL (≈ 34.2 µM); MIC [17]: 15 µg/mL (≈ 41 µM)
